In article PMC12444507 (ACS Omega, 2025):

Tests used:
[1] = test system: SARS-CoV-2 strain JPN/TY/WK-521 (SARS-CoV-2^WK-521, ancestral Wuhan strain); assay type: cell-based
[2] = test system: SARS-CoV-2^WK-521 infected VeroE6 cells
[3] = test system: SARS-CoV-2 strain JPN/TY/WK-521 (SARS-CoV-2^WK-521, ancestral Wuhan strain); details: cited from earlier work

In the case of CC(C)(C)[C@H](NC(=O)C(F)(F)F)C(=O)N1C[C@H]2[C@@H]([C@H]1C(=O)N[C@@H](C[C@@H]1CCNC1=O)C(=O)c1nc3c(Br)c(F)ccc3s1)C2(C)C [Compound 15], the “lower potency than TKB272 (8)” value [1] is reported as “approximately 3 fold”.

With CC(C)(C)[C@H](NC(=O)C(F)(F)F)C(=O)N1C[C@H]2[C@@H]([C@H]1C(=O)N[C@@H](C[C@@H]1CCNC1=O)C(=O)c1nc3cc(F)ccc3s1)C2(C)C [TKB272 (8)] the “cytotoxicity in immunostaining experiments” value [2] was “no significant cytotoxicity” and the revertant mutagenicity (bacterial mutation) was “no revertant mutagenicity”.

For CC(C)(C)[C@H](NC(=O)C(F)(F)F)C(=O)N1C[C@H]2[C@@H]([C@H]1C(=O)N[C@H](C#N)C[C@@H]1CCNC1=O)C2(C)C [nirmatrelvir (1), nirmatrelvir], the EC50 [3] is listed as 770 ± 180 nM.
